Laboratory results taken from paper PMC12153776, “Synthesis and Preliminary Cytotoxicity Evaluation of 3-Lup-20(29)-Ene-3β,28-Diol Glycoconjugates Containing a Succinic Linker and a 1,2,3-Triazole Ring” (Cancers, 2025).

Columns and labels:
[1] = tested on: HCT 116 (colorectal carcinoma cell line); assay: cells; type: cell-based, human; details: for IC50: Homo sapiens, MTT
Procedure: (§1) For biological studies three different cell lines were used: the NHDF-Neo cell line (Lonza, Poland), the HCT-116 cell line (American Type Culture Collection, ATCC, Manassas, VA, USA), and the MCF-7 cell line (purchased by the Maria Sklodowska-Curie Memorial Cancer Center and Institute of Oncology, Gliwice, Poland and gifted for our research). Cells were cultured in 96-well plates (Sarstedt, Nümbrecht, Germany) using RPMI 1640 or DMEM/F12 media (100 µL per well) supplemented with fetal bovine serum (FBS, EURx, Gdańsk, Poland), and with Antibiotic–Antimycotic Solution (Avantor, Gliwice, Poland). […] Stock solutions of the tested compounds were prepared in DMSO and stored under appropriate conditions. Immediately prior to the experiment, these solutions were diluted to the desired concentrations using a growth medium. In no dilution was the DMSO content higher than 1% v/v. The resulting solutions were then used to treat cells (100 µL per well). […] In parallel, the influence of copper ions on cellular proliferation was investigated. In this case, the procedure was analogous to the previously described one, with the difference that glycoconjugates were added in the culture medium with the addition of CuCl2. […] ACROS Organics) was applied following the manufacturer’s protocol. Absorbance of the formazan, formed during the test and dissolved in 100 µL of DMSO, was measured spectrophotometrically at 570 nm using a plate reader (Epoch, Bio-Tek, Winooski, VT, USA). The measured absorbance was analyzed to assess proliferation, where tested samples were compared with the untreated controls (100%). The results from MTT were presented as the mean of three experiments (biological replicates). For each experimental condition within a replicate, four technical repetitions were performed. Technical repetitions were averaged to obtain a single value per replicate. Statistical analyses were conducted using means of the biological replicates. The percentage of viable cells and the standard deviation (SD) were calculated in Excel (Microsoft Office 365, A3 for faculty), using the STDEV.S formula, which determines the standard deviation for a sample set. […] The results are expressed as the average value ± standard deviation (SD). To evaluate statistical significance, two-way analysis of variance (ANOVA) with replication was performed to assess the effects of compound type and concentration on cell proliferation. […] All statistical tests were performed in Excel. […] Two cancer cell lines were chosen for the study: HCT 116 (colorectal carcinoma cell line) and MCF-7 (human breast adenocarcinoma cell line). This selection was not random, as in both types of cancer cell lines overexpression of glucose and galactose transporters is observed. To determine if glycoconjugation enhanced the selectivity of the betulin derivatives, cytotoxicity tests on Normal Human Dermal Fibroblast-Neonatal cells (NHDF-Neo) were also conducted. […] The incubation time for individual cell lines varied from 24 to 72 h, due to differences in the doubling time of these cell lines.

[2] = tested on: MCF-7 (human breast adenocarcinoma cell line); assay: MTT cytotoxicity assay, MCF-7 cells; type: cell-based; details: for IC50: Homo sapiens, MCF7, 72 h, MTT, incubation 72 h
Procedure: as §1, with “Poland). Cells were seeded and incubated for 24 h prior to treatment:” for “Poland).”, “proliferation. When significant main effects were observed (p < 0.05), pairwise comparisons between betulin (BN) and each analogue at corresponding concentrations were conducted using two-tailed unpaired t-tests.” for “proliferation.”, “conducted. The selection of this healthy cell line, so atypical in relation to the cancer cells tested, was based on the desire to compare the selectivity index determined for the currently obtained glycoconjugates with the results obtained for the betulin derivatives we described earlier and draw preliminary conclusions on structure-selectivity relationships.” for “conducted.”

[3] = tested on: Normal Human Dermal Fibroblast-Neonatal cells (NHDF-Neo); assay: MTT cytotoxicity assay, healthy NHDF-Neo cells; type: cell-based; details: 24 h, incubation 24 h
Procedure: as §1

[4] = HCT-116, 24 h, incubation 24 h, no copper added
[5] = HCT-116, 48 h, incubation 48 h, addition of CuCl2 at 20 µM
[6] = HCT-116, 48 h, incubation 48 h, no copper added

## C=C(C)[C@@H]1CC[C@]2(COC(=O)CCC(=O)OCc3cn(CCCO[C@@H]4O[C@H](COC(C)=O)[C@@H](OC(C)=O)[C@H](OC(C)=O)[C@H]4OC(C)=O)nn3)CC[C@]3(C)C(CCC4[C@@]5(C)CC[C@H](OC(C)=O)C(C)(C)C5CC[C@]43C)C12 (stereo partly drawn) [7b]
[1]; [4]
  IC50: > 200 µM
[1]; [5]
  IC50: 112.5 ± 0.57 µM
[1]; [6]
  IC50: > 200 µM
[1]; addition of CuCl2 at 20 µM
  SI HCT 116 (ratio of IC50 of NHDF-Neo to IC50 of cancer cells): >1.8
[2]; addition of CuCl2 at 20 µM
  IC50: 124 ± 1.64 µM
  SI MCF-7 (ratio of IC50 of NHDF-Neo to IC50 of cancer cells): >1.6
[2]; no copper added
  IC50: 152 ± 2.91 µM
  SI MCF-7 (ratio of IC50 of NHDF-Neo to IC50 of cancer cells): >1.3
[3]; addition of CuCl2 at 20 µM
  IC50: > 200 µM
[3]; no copper added
  IC50: > 200 µM

## C=C(C)[C@@H]1CC[C@]2(COC(=O)CCC(=O)OCc3cn([C@@H]4O[C@H](COC(C)=O)[C@@H](OC(C)=O)[C@H](OC(C)=O)[C@H]4OC(C)=O)nn3)CC[C@]3(C)C(CCC4[C@@]5(C)CC[C@H](O)C(C)(C)C5CC[C@]43C)C12 (stereo partly drawn) [5c]
[1]; [4]
  IC50: > 200 µM
[1]; [5]
  IC50: > 200 µM
[1]; [6]
  IC50: > 200 µM
[2]; addition of CuCl2 at 20 µM
  IC50: 70.7 ± 5.44 µM
  SI MCF-7 (ratio of IC50 of NHDF-Neo to IC50 of cancer cells): >2.8
[2]; no copper added
  IC50: 128 ± 1.35 µM
  SI MCF-7 (ratio of IC50 of NHDF-Neo to IC50 of cancer cells): >1.6
[3]; addition of CuCl2 at 20 µM
  IC50: > 200 µM
[3]; no copper added
  IC50: > 200 µM

## C=C(C)[C@@H]1CC[C@]2(CO)CC[C@]3(C)[C@H](CC[C@@H]4[C@@]5(C)CC[C@H](O)C(C)(C)[C@@H]5CC[C@]43C)[C@@H]12 [BN, 3-Lup-20(29)-ene-3β,28-diol]
[1]; [4]
  IC50: 34.9 ± 4.26 µM
[1]; [5]
  IC50: 20.8 ± 2.71 µM
[1]; [6]
  IC50: 26 ± 5.4 µM
[1]; addition of CuCl2 at 20 µM
  SI HCT 116 (ratio of IC50 of NHDF-Neo to IC50 of cancer cells): 1.6
[1]; no copper added
  SI HCT 116 (ratio of IC50 of NHDF-Neo to IC50 of cancer cells): 1.3
[2]; addition of CuCl2 at 20 µM
  IC50: 13.9 ± 2.35 µM
  SI MCF-7 (ratio of IC50 of NHDF-Neo to IC50 of cancer cells): 2.4
[2]; no copper added
  IC50: 17.9 ± 1.06 µM
  SI MCF-7 (ratio of IC50 of NHDF-Neo to IC50 of cancer cells): 1.9
[3]; addition of CuCl2 at 20 µM
  IC50: 33.3 ± 5.97 µM
[3]; no copper added
  IC50: 34.9 ± 8.36 µM

## COc1cccc2c1C(=O)c1c(O)c3c(c(O)c1C2=O)C[C@@](O)(C(=O)CO)C[C@@H]3O[C@H]1C[C@H](N)[C@H](O)[C@H](C)O1 [Doxorubicin, doxorubicin, reference compound]
[1]; [4]
  IC50: 13.2 ± 0.58 µM
[1]; [6]
  IC50: 1.89 ± 0.19 µM
[2]; no copper added
  IC50: 0.29 ± 0.04 µM

## C=C(C)[C@@H]1CC[C@]2(COC(=O)CCC(=O)OCc3cn([C@@H]4O[C@H](COCc5ccccc5)[C@H](OCc5ccccc5)[C@H](OCc5ccccc5)[C@H]4OCc4ccccc4)nn3)CC[C@]3(C)C(CCC4[C@@]5(C)CC[C@H](OC(C)=O)C(C)(C)C5CC[C@]43C)C12 (stereo partly drawn) [6b]
[1]; [4]
  IC50: > 200 µM
[1]; [6]
  IC50: > 200 µM
[2]; no copper added
  IC50: 184 ± 7.59 µM
  SI MCF-7 (ratio of IC50 of NHDF-Neo to IC50 of cancer cells): >1.1
[3]; no copper added
  IC50: > 200 µM

## C=C(C)[C@@H]1CC[C@]2(COC(=O)CCC(=O)OCc3cn(C[C@H]4O[C@@H](OC(C)=O)[C@H](OC(C)=O)[C@@H](OC(C)=O)[C@H]4OC(C)=O)nn3)CC[C@]3(C)C(CCC4[C@@]5(C)CC[C@H](OC(C)=O)C(C)(C)C5CC[C@]43C)C12 (stereo partly drawn) [8a]
[1]; [4]
  IC50: > 200 µM
[1]; [5]
  IC50: > 200 µM
[1]; [6]
  IC50: > 200 µM
[2]; addition of CuCl2 at 20 µM
  IC50: 88.3 ± 3.31 µM
  SI MCF-7 (ratio of IC50 of NHDF-Neo to IC50 of cancer cells): >2.3
[2]; no copper added
  IC50: 153 ± 1.98 µM
  SI MCF-7 (ratio of IC50 of NHDF-Neo to IC50 of cancer cells): >1.3
[3]; addition of CuCl2 at 20 µM
  IC50: > 200 µM
[3]; no copper added
  IC50: > 200 µM

## C=C(C)[C@@H]1CC[C@]2(COC(=O)CCC(=O)OCc3cn(CCCO[C@@H]4O[C@H](COC(C)=O)[C@@H](OC(C)=O)[C@H](OC(C)=O)[C@H]4OC(C)=O)nn3)CC[C@]3(C)C(CCC4[C@@]5(C)CC[C@H](O)C(C)(C)C5CC[C@]43C)C12 (stereo partly drawn) [7d]
[1]; [4]
  IC50: > 200 µM
[1]; [5]
  IC50: 60.4 ± 6.95 µM
[1]; [6]
  IC50: 131 ± 8.76 µM
[1]; no copper added
  SI HCT 116 (ratio of IC50 of NHDF-Neo to IC50 of cancer cells): >1.5
[2]; addition of CuCl2 at 20 µM
  IC50: 147 ± 2.32 µM
  SI MCF-7 (ratio of IC50 of NHDF-Neo to IC50 of cancer cells): >1.4
[2]; no copper added
  IC50: 165 ± 8.32 µM
  SI MCF-7 (ratio of IC50 of NHDF-Neo to IC50 of cancer cells): >1.2
[3]; addition of CuCl2 at 20 µM
  IC50: > 200 µM
[3]; no copper added
  IC50: > 200 µM

## C=C(C)[C@@H]1CC[C@]2(COC(=O)CCC(=O)OCc3cn([C@@H]4O[C@H](COC(C)=O)[C@H](OC(C)=O)[C@H](OC(C)=O)[C@H]4OC(C)=O)nn3)CC[C@]3(C)C(CCC4[C@@]5(C)CC[C@H](OC(C)=O)C(C)(C)C5CC[C@]43C)C12 (stereo partly drawn) [6a]
[1]; [4]
  IC50: > 200 µM
[1]; [5]
  IC50: > 200 µM
[1]; [6]
  IC50: > 200 µM
[2]; addition of CuCl2 at 20 µM
  IC50: 59.8 ± 1.85 µM
[2]; no copper added
  IC50: 123 ± 6.84 µM
  SI MCF-7 (ratio of IC50 of NHDF-Neo to IC50 of cancer cells): >1.6
[3]; addition of CuCl2 at 20 µM
  IC50: > 200 µM
[3]; no copper added
  IC50: > 200 µM

## C=C(C)[C@@H]1CC[C@]2(COC(=O)CCC(=O)OCc3cn([C@@H]4O[C@H](COC(C)=O)[C@@H](OC(C)=O)[C@H](OC(C)=O)[C@H]4OC(C)=O)nn3)CC[C@]3(C)C(CCC4[C@@]5(C)CC[C@H](OC(C)=O)C(C)(C)C5CC[C@]43C)C12 (stereo partly drawn) [5a]
[1]; [4]
  IC50: > 200 µM
[1]; [5]
  IC50: > 200 µM
[1]; [6]
  IC50: > 200 µM
[2]; addition of CuCl2 at 20 µM
  IC50: 109 ± 5.85 µM
  SI MCF-7 (ratio of IC50 of NHDF-Neo to IC50 of cancer cells): >1.8
[2]; no copper added
  IC50: 163 ± 7.65 µM
  SI MCF-7 (ratio of IC50 of NHDF-Neo to IC50 of cancer cells): >1.2
[3]; addition of CuCl2 at 20 µM
  IC50: > 200 µM
[3]; no copper added
  IC50: > 200 µM

## C=C(C)[C@@H]1CC[C@]2(COC(=O)CCC(=O)OCc3cn(CCO[C@@H]4O[C@H](COC(C)=O)[C@@H](OC(C)=O)[C@H](OC(C)=O)[C@H]4OC(C)=O)nn3)CC[C@]3(C)C(CCC4[C@@]5(C)CC[C@H](OC(C)=O)C(C)(C)C5CC[C@]43C)C12 (stereo partly drawn) [7a]
[1]; [4]
  IC50: > 200 µM
[1]; [5]
  IC50: 150 ± 8.01 µM
[1]; [6]
  IC50: > 200 µM
[1]; addition of CuCl2 at 20 µM
  SI HCT 116 (ratio of IC50 of NHDF-Neo to IC50 of cancer cells): >1.3
[2]; addition of CuCl2 at 20 µM
  IC50: 135 ± 10.2 µM
  SI MCF-7 (ratio of IC50 of NHDF-Neo to IC50 of cancer cells): >1.5
[2]; no copper added
  IC50: 144 ± 4.7 µM
  SI MCF-7 (ratio of IC50 of NHDF-Neo to IC50 of cancer cells): >1.4
[3]; addition of CuCl2 at 20 µM
  IC50: > 200 µM
[3]; no copper added
  IC50: > 200 µM
